Holding throughout (format): functional, organism-based
Experiment [1] concerns Escherichia coli. The experiment can be described thus: Compound was evaluated for the inhibition of Escherichia coli TEM-1 enzyme.
Experiment [2] relates to Enterobacter cloacae. The experiment can be described thus: Compound was evaluated for the inhibition of Enterobacter cloacae P99 cephalosporinase.
The test system of experiment [3] is Staphylococcus aureus. The experiment can be described thus: Compound was evaluated for the inhibition of Staphylococcus aureus penicillinase (PC1).

Each structure is given as a SMILES string.

The source of these data is ChEMBL document CHEMBL1125941, “(2,3)--methylenepenicillanic acid sulfone: synthesis and -lactamase inhibiting properties” (Bioorg Med Chem Lett, 1991).

With `CC1(C)[C@H](C(=O)O)N2C(=O)C[C@H]2S1(=O)=O` [SULBACTAM], the IC50 (usually the point on the concentration scale where inhibition reaches its midpoint) came out at 1.9 µM in experiment [1], 20 µM in experiment [2] and 6.8 µM in experiment [3].

Turning to `C[C@@]12C[C@]1(C(=O)O)N1C(=O)C[C@H]1S2(=O)=O`, the 50% inhibitory concentration (IC50) in experiment [1] was found to be 406 µM; in experiment [2], 12 µM; in experiment [3], 548 µM.

For the molecule `C[C@]12C[C@@]1(C(=O)O)N1C(=O)C[C@H]1S2(=O)=O`, the IC50 came out at 2.5 µM in experiment [1], 322 µM in experiment [2] and 14 µM in experiment [3].
